The values below come from ChEMBL document CHEMBL1144444, “Predictive three-dimensional quantitative structure-activity relationship of cytochrome P450 1A2 inhibitors” (J Med Chem, 2005).

SMILES strings stand for the structures.

One assay concerns the target T1, Cytochrome P450 1A2 (Homo sapiens, UniProt P05177).
T1 sequence (P05177 whole entry): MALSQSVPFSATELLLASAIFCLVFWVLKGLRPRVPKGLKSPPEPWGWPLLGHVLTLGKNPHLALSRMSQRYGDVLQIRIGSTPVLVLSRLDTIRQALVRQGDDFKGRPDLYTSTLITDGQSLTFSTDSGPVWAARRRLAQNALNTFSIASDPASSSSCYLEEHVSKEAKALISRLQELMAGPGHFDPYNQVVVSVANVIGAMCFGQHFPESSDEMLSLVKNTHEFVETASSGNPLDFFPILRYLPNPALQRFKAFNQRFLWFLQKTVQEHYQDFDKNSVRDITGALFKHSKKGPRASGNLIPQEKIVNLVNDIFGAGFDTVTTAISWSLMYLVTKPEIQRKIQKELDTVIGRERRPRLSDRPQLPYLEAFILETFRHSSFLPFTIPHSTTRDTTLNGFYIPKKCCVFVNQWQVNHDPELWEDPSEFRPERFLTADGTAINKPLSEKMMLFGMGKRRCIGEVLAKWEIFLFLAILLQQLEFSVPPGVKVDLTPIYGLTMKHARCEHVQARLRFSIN
The experiment in a line: Inhibitory concentration against recombinant human cytochrome P450 1A2.
Conditions: not given
Broadly, the IC50 is the concentration at which inhibition is half-maximal. Take `Cc1ccc2c(C)cccc2c1`: the IC50 amounted to 25 µM. Turning to `Cc1ccc2ccccc2c1`, the half-maximal inhibitory concentration (IC50) amounted to 120 µM. The same measure, in the same setting: for `Clc1ccccc1-c1ccccc1` the value was 230 µM; for `Oc1ccc2ccccc2c1` [BETANAPHTHOL], 17 µM; for `CN1CCC[C@@H]1c1cccnc1` [R-NICOTINE], 4100 µM. Same read-out and setting: next, `Cc1cc(C)c2ccccc2n1`: 2.4 µM; `c1ccc2c(c1)CCC2`: 550 µM; `COc1ccc(C=O)cc1`: 270 µM. The same measure, in the same setting: next, `O=C1CCC(c2ccccc2)O1` (stereo unspecified): 2300 µM. With `Fc1ccc2ccccc2c1`, the IC50 stood at 49 µM. The same measure, in the same setting: for `CCC1CCC(=O)O1` (stereo unspecified) the value was 9900 µM; for `Cc1ccc2cc(C)ccc2c1`, 52 µM. Consider `Clc1ccc(-c2ccccc2)cc1`, for which the IC50 amounted to 49 µM. `Cc1ccc(CCN)cc1`: the IC50 is 14 µM.

As for `Cc1cc(C)oc(=O)c1`, the IC50 was 4500 µM.

As for `Cc1ccc2ccccc2n1` [QUINALDINE], the IC50 was 40 µM.

For `CCc1ccc2ccccc2c1`, the IC50 turned out to be 19 µM. Still for that read-out and setting: next, `O=c1[nH]c2ccccc2o1` [BENZOXAZOLINONE]: 370 µM. With `Clc1cccc2ccccc12`, the IC50 amounted to 50 µM. `Cc1cccc2ccccc12`: the IC50 came to 110 µM. Turning to `Cc1ccc(C)c2ccccc12`, the IC50 was determined as 3.6 µM. `O=C1Cc2ccccc2O1`: the IC50 was 260 µM.

Take `Cc1cc2ccccc2cn1`: the IC50 is 21 µM. The same measure, in the same setting: for `CCCCc1ccccc1` [BUTYLBENZYL] the value was 3700 µM; for `Cc1cnc2ccccc2c1`, 13 µM.

Regarding `c1ccc2ccccc2c1`, the IC50 is 700 µM. Same read-out and setting: next, `Cc1ccc2cccc(C)c2c1`: 7.5 µM; `Cc1ccc2ccc(C)cc2c1`: 65 µM. Same read-out and setting: for `Cc1cccc2c(C)cccc12` the value was 42 µM; for `CCCCC1CCCCC1` [BUTYLCYCLOHEXANE], 55 µM; for `CN1C(=O)CCC1c1cccnc1` (single isomer, unassigned) [COTININE], 5400 µM.

As for `c1ccc(-c2ccccc2)cc1` [BIPHENYL], the IC50 stood at 160 µM. Same read-out and setting: for `c1ccc2c(c1)CCO2` the value was 1200 µM; for `Oc1cccc2ccccc12` [1-NAPHTHOL], 3.2 µM.

The same assay, now with this note: human, recombinant human CYP1A2.
As for `O=C1CCCCCO1`, the IC50 is > 40000 µM.

In the case of `COC1=CC(=O)OC1`, the IC50 was > 40000 µM.
